Results taken from ChEMBL document CHEMBL4052738, “Design and synthesis of 4-morpholino-6-(1,2,3,6-tetrahydropyridin-4-yl)-N-(3,4,5-trimethoxyphenyl)-1,3,5-triazin-2-amine analogues as tubulin polymerization inhibitors” (Bioorg Med Chem Lett, 2017).
Activity calls are given as the source filed them. The rule behind the calls is not given here.

Columns and labels:
[1] = test system: A549; assay: Antiproliferative activity against human A549 cells after 48 hrs by sulforhodamine B assay; assay type: functional, cell-based; settings: A549, 48 h
[2] = test system: HeLa; assay: Antiproliferative activity against human HeLa cells after 48 hrs by sulforhodamine B assay; assay type: functional, cell-based
[3] = test system: HepG2; assay: Antiproliferative activity against human HepG2 cells after 48 hrs by sulforhodamine B assay; assay type: functional, cell-based; settings: HepG2, 48 h
[4] = test system: MCF7; assay: Antiproliferative activity against human MCF7 cells after 48 hrs by sulforhodamine B assay; assay type: functional, cell-based; settings: MCF7, 48 h
[5] = test system: HeLa; assay: Inhibition of microtubule polymerization in human HeLa cells assessed as cell rounding at 10 mM after 24 hrs by DAPI staining-based immunofluorescence assay
[6] = test system: HeLa; assay: Induction of apoptosis in human HeLa cells assessed as increase in cyclin-B1 levels at 10 mM after 24 hrs by immunoblot analysis; assay type: functional, cell-based
[7] = test system: HeLa; assay: Inhibition of tubulin polymerization in human HeLa cells assessed as increase in soluble tubulin fraction at 10 mM after 24 hrs by immunoblot analysis; assay type: cell-based
[8] = test system: HeLa; assay: Inhibition of microtubule polymerization in human HeLa cells assessed as spindle fibres in nucleus at 10 mM after 24 hrs by DAPI staining-based immunofluorescence assay; assay type: cell-based
[9] = Inhibition of porcine tubulin polymerization after 1 hr in presence of GTP; set-up: species or system Sus scrofa
[10] = test system: HeLa; assay: Inhibition of microtubule polymerization in human HeLa cells assessed as spindle fibres in nucleus at 1 mM after 24 hrs by DAPI staining-based immunofluorescence assay; assay type: cell-based
[11] = test system: HeLa; assay: Induction of apoptosis in human HeLa cells assessed as increase in cyclin-B1 levels at 1 mM after 24 hrs by immunoblot analysis; assay type: functional, cell-based
[12] = test system: HeLa; assay: Inhibition of tubulin polymerization in human HeLa cells assessed as increase in soluble tubulin fraction at 1 mM after 24 hrs by immunoblot analysis; assay type: cell-based
[13] = test system: HeLa; assay: Inhibition of microtubule polymerization in human HeLa cells assessed as cell rounding at 1 mM after 24 hrs by DAPI staining-based immunofluorescence assay

SMILES | IC50 [1] [µM] | IC50 [2] [µM] | IC50 [3] [µM] | IC50 [4] [µM] | other results
COc1cc(Nc2nc(C3=CCN(S(=O)(=O)c4ccc(C(C)=O)cc4)CC3)nc(N3CCOCC3)n2)cc(OC)c1OC | 32 | 45 | 36.5 | 32.1 | –
COc1cc(Nc2nc(C3=CCN(C(=O)N4CCOCC4)CC3)nc(N3CCOCC3)n2)cc(OC)c1OC | 32 | 45.2 | 29 | 38.2 | –
COc1cc(Nc2nc(C3=CCN(C(=O)N4CCN(C)CC4)CC3)nc(N3CCOCC3)n2)cc(OC)c1OC | 34.6 | 40.2 | 34.9 | 40.8 | –
COc1cc(Nc2nc(C3=CCN(S(=O)(=O)c4ccc(C)cc4)CC3)nc(N3CCOCC3)n2)cc(OC)c1OC | 40.3 | 45.7 | 25 | 42.1 | –
COc1cc(Nc2nc(C3=CCN(S(=O)(=O)c4ccc([N+](=O)[O-])cc4)CC3)nc(N3CCOCC3)n2)cc(OC)c1OC | 34.6 | 32 | 43.2 | 40.3 | –
COc1cc(Nc2nc(C3=CCN(S(=O)(=O)c4ccc(F)cc4)CC3)nc(N3CCOCC3)n2)cc(OC)c1OC | 45.6 | 50.6 | 30 | 29.6 | –
COc1cc(Nc2nc(C3=CCN(S(C)(=O)=O)CC3)nc(N3CCOCC3)n2)cc(OC)c1OC | 39 | 32 | 28.5 | 28.9 | –
COc1cc(Nc2nc(C3=CCN(S(=O)(=O)c4ccc(C(C)(C)C)cc4)CC3)nc(N3CCOCC3)n2)cc(OC)c1OC | 33.5 | 50.4 | 48.4 | 40.4 | –
COc1cc(Nc2nc(C3=CCN(S(=O)(=O)c4ccc(C(F)(F)F)cc4)CC3)nc(N3CCOCC3)n2)cc(OC)c1OC | 29.9 | 32.1 | 27.2 | 40.5 | –
COc1cc(Nc2nc(C3=CCN(C(=O)N4CCCCC4)CC3)nc(N3CCOCC3)n2)cc(OC)c1OC | 30.8 | 34 | 41.7 | 40.5 | –
COc1ccc(/C=C\c2cc(OC)c(OC)c(OC)c2)cc1O [COMBRETASTATIN A4] | 5.3 | 5.8 | 4.3 | 4.2 | –
COc1cc(Nc2nc(C3=CCN(S(=O)(=O)c4ccc(Br)s4)CC3)nc(N3CCOCC3)n2)cc(OC)c1OC | 29 | 39.6 | 28 | 30.6 | –
COc1ccc(S(=O)(=O)N2CC=C(c3nc(Nc4cc(OC)c(OC)c(OC)c4)nc(N4CCOCC4)n3)CC2)cc1 | 34.9 | 47.8 | 30.6 | 50.3 | –
CCN1CCN(C(=O)N2CC=C(c3nc(Nc4cc(OC)c(OC)c(OC)c4)nc(N4CCOCC4)n3)CC2)CC1 | 43.2 | 39.5 | 45.9 | 30 | –
COc1cc(Nc2nc(C3=CCN(C(=O)Cc4c[nH]c5ccccc45)CC3)nc(N3CCOCC3)n2)cc(OC)c1OC | 43.9 | 33.2 | 32 | 29.8 | –
COC(=O)Nc1nc2cc(C(=O)c3cccs3)ccc2[nH]1 [NOCODAZOLE] | – | 1.6 | 1.1 | 1.5 | inhibition [10]: Active; Activity [11]: Active; inhibition [12]: Active; inhibition [13]: Active; IC50 [9]: 0.8 µM
COc1cc(Nc2nc(C3=CCN(S(=O)(=O)c4ccccc4[N+](=O)[O-])CC3)nc(N3CCOCC3)n2)cc(OC)c1OC | 33.5 | 32 | 51 | 50.5 | –
COc1cc(Nc2nc(C3=CCN(C(=O)N4CCN(c5ccc(C)cc5)CC4)CC3)nc(N3CCOCC3)n2)cc(OC)c1OC | 29.6 | 39.6 | 40 | 49.1 | –
COc1cc(Nc2nc(C3=CCN(C(=O)N4CCCC4)CC3)nc(N3CCOCC3)n2)cc(OC)c1OC | 43.3 | 29.4 | 38.8 | 34 | –
COc1cc(Nc2nc(C3=CCN(S(=O)(=O)c4ccc(Br)cc4)CC3)nc(N3CCOCC3)n2)cc(OC)c1OC | 43.6 | 30.6 | 40.4 | 32.5 | –
COc1cc(Nc2nc(C3=CCN(C(=O)C(F)(F)F)CC3)nc(N3CCOCC3)n2)cc(OC)c1OC | 28.6 | 43.1 | 50.6 | 48.4 | –

Second part, led by results:

IC50 [1] [µM] | IC50 [2] [µM] | IC50 [3] [µM] | IC50 [4] [µM] | SMILES | other results
45.9 | 40.5 | 43.6 | 26.4 | COc1ccc(NC(=O)N2CC=C(c3nc(Nc4cc(OC)c(OC)c(OC)c4)nc(N4CCOCC4)n3)CC2)cc1 | –
42 | 34.2 | 29.8 | 40.4 | COc1cc(Nc2nc(C3=CCN(C(=O)CC#N)CC3)nc(N3CCOCC3)n2)cc(OC)c1OC | –
10.5 | 12.3 | 9.6 | 11.7 | COc1cc(Nc2nc(C3=CCN(C(=O)c4ccc([N+](=O)[O-])o4)CC3)nc(N3CCOCC3)n2)cc(OC)c1OC | inhibition [5]: Active; Activity [6]: Active; inhibition [7]: Active; inhibition [8]: Active; IC50 [9]: 5.2 µM
51 | 45 | 37.1 | 32 | COc1cc(Nc2nc(C3=CCN(C(=O)c4ccco4)CC3)nc(N3CCOCC3)n2)cc(OC)c1OC | –
41.9 | 48.3 | 40 | 39.4 | COc1cc(Nc2nc(C3=CCN(C(=O)c4cnccn4)CC3)nc(N3CCOCC3)n2)cc(OC)c1OC | –
51 | 30.4 | 34.5 | 30.6 | COc1cc(Nc2nc(C3=CCN(C(=O)Nc4ccc(F)c(F)c4)CC3)nc(N3CCOCC3)n2)cc(OC)c1OC | –
40.8 | 51 | 49.3 | 30.6 | COc1cc(Nc2nc(C3=CCN(S(=O)(=O)c4ccc(Cl)cc4)CC3)nc(N3CCOCC3)n2)cc(OC)c1OC | –
34 | 40.4 | 35.7 | 39.8 | COc1cc(Nc2nc(C3=CCN(C(=O)c4ccc(Br)cc4)CC3)nc(N3CCOCC3)n2)cc(OC)c1OC | –
35.9 | 30.7 | 34.9 | 29 | COc1cc(Nc2nc(C3=CCN(C(=O)Nc4ccc(Cl)cc4)CC3)nc(N3CCOCC3)n2)cc(OC)c1OC | –
42.9 | 41 | 45 | 30.2 | COc1cc(Nc2nc(C3=CCN(C(=O)c4cccnc4Cl)CC3)nc(N3CCOCC3)n2)cc(OC)c1OC | –
43.2 | 32.9 | 32.9 | 30.5 | COc1cc(Nc2nc(C3=CCN(C(=O)CS)CC3)nc(N3CCOCC3)n2)cc(OC)c1OC | –
33.3 | 43 | 30.6 | 32.1 | COc1ccc(C(=O)N2CC=C(c3nc(Nc4cc(OC)c(OC)c(OC)c4)nc(N4CCOCC4)n3)CC2)cc1 | –
45.7 | 40.1 | 29.1 | 25.9 | COc1cc(Nc2nc(C3=CCN(C(=O)Nc4ccc(F)cc4)CC3)nc(N3CCOCC3)n2)cc(OC)c1OC | –
43.5 | 34.8 | 40.3 | 38.3 | COc1cc(Nc2nc(C3=CCN(C(=O)c4ccc(Cl)cc4)CC3)nc(N3CCOCC3)n2)cc(OC)c1OC | –
32 | 34 | 50 | 38.5 | COc1cc(Nc2nc(C3=CCN(C(=O)Nc4ccncc4)CC3)nc(N3CCOCC3)n2)cc(OC)c1OC | –
49 | 45.7 | 50.6 | 40.2 | COc1cc(Nc2nc(C3=CCN(C(C)=O)CC3)nc(N3CCOCC3)n2)cc(OC)c1OC | –
48.9 | 50.6 | 39.5 | 32.1 | COc1cc(Nc2nc(C3=CCN(C(=O)c4ccncc4)CC3)nc(N3CCOCC3)n2)cc(OC)c1OC | –
45.9 | 43.9 | 38.9 | 28 | COc1cc(Nc2nc(C3=CCN(C(=O)c4ccc(Br)cc4O)CC3)nc(N3CCOCC3)n2)cc(OC)c1OC | –
